Results from PMC9505425, “Targeting of the Mitochondrial TET1 Protein by Pyrrolo[3,2-b]pyrrole Chelators” (International Journal of Molecular Sciences, 2022).
“And” between values parts separate entries of the source, which are not always exact repeats. Equal values may be shown once.

Experiments:
Format in all cases: cell-based, human
[1] = MTT cytotoxicity assay, HF-P4; conditions: human, HF-P4 normal human dermal fibroblasts, repeats, read-out: Cell viability %
In short: (§1)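 Cells seeded at 1.0 × 10^5 per well, grown 24 h, then exposed 48 h to compounds at 0.1–20 μM (DMSO ≤1%). MTT added for 2 h, formazan dissolved in DMSO, absorbance read at 570 nm. IC50 calculated relative to untreated cells (100%).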

HF-P4 cells = test: MTT cytotoxicity assay, HF-P4; conditions: 48 h; for Cell viability %: repeats
In short: as §1

Caov-3 cells = test: MTT cytotoxicity assay, Caov-3
In short: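 Caov-3 ovarian adenocarcinoma cells, grown for 24 h after plating, were exposed for 48 h to compound at 0.1–20 μM with at most 1% DMSO. Viability was measured by MTT reduction (2 h, A570) relative to untreated cells. IC50 was the concentration inhibiting 50% of cell growth.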

Cc1ccc(-n2c(-c3ccc(C(=O)N/N=C/c4ccccc4O)cc3)cc3c2cc(-c2ccc(C(=O)N/N=C/c4ccccc4O)cc2)n3-c2ccc(C)cc2)cc1 [Compound 6]
viability at 48 h, 0.5 µM ([1]; HF-P4, 500 nM): 103%
viability at 48 h, 0.75 µM ([1]; HF-P4, 750 nM): 97.8%
viability at 48 h, 1 µM ([1]; HF-P4, 1 uM): 84.4%
viability at 48 h, 2.5 µM ([1]; HF-P4, 2.5 uM): 94.5%
viability at 48 h, 5 µM ([1]; HF-P4, 5 uM): 84.3%
viability at 48 h, 7.5 µM ([1]; HF-P4, 7.5 uM): 62.3%
viability at 48 h, 10 µM ([1]; HF-P4, 10 uM): 66.1%
viability at 48 h, 15 µM ([1]; HF-P4, 15 uM): 62.5%
viability at 48 h, 20 µM ([1]; HF-P4, 20 uM): 48%
Cell viability % (HF-P4 cells; HF-P4, 100 nM, 0.1 µM): 114.4851% and 90.24% and 95.4%
Cell viability % (HF-P4 cells; HF-P4, 500 nM, 0.5 µM): 95.79% and 101.8289%
Cell viability % (HF-P4 cells; HF-P4, 750 nM, 0.75 µM): 92.17% and 90.68%
Cell viability % (HF-P4 cells; HF-P4, 1 uM, 1 µM): 84.11% and 85.78%
Cell viability % (HF-P4 cells; HF-P4, 2.5 uM, 2.5 µM): 75.58% and 74.71%
Cell viability % (HF-P4 cells; HF-P4, 5 uM, 5 µM): 73.0472% and 65.6%
Cell viability % (HF-P4 cells; HF-P4, 7.5 uM, 7.5 µM): 61.49% and 69.35%
Cell viability % (HF-P4 cells; HF-P4, 10 uM, 10 µM): 61.41% and 64.7001%
Cell viability % (HF-P4 cells; HF-P4, 15 uM, 15 µM): 54.9% and 58.15%
Cell viability % (HF-P4 cells; HF-P4, 20 uM, 20 µM): 42.62% and 43.54%
IC50 (HF-P4 cells; Homo sapiens, MTT): 16.4 µM
Cell viability % (Caov-3 cells; Caov-3, 100 nM, 48 h, repeats, 0.1 µM): 90.2569% and 126.2705% and 118.7488%
Cell viability % (Caov-3 cells; Caov-3, 500 nM, 48 h, repeats, 0.5 µM): 89.11% and 125.1899% and 99.08%
Cell viability % (Caov-3 cells; Caov-3, 750 nM, 48 h, repeats, 0.75 µM): 65.96% and 78.5%
Cell viability % (Caov-3 cells; Caov-3, 1 uM, 48 h, repeats, 1 µM): 64.72% and 111.7508% and 115.9087%
Cell viability % (Caov-3 cells; Caov-3, 2.5 uM, 48 h, repeats, 2.5 µM): 67.86% and 93.922% and 75.11%
Cell viability % (Caov-3 cells; Caov-3, 5 uM, 48 h, repeats, 5 µM): 62.99% and 65.69% and 100.7653%
Cell viability % (Caov-3 cells; Caov-3, 7.5 uM, 48 h, repeats, 7.5 µM): 58% and 65.63% and 91.09%
Cell viability % (Caov-3 cells; Caov-3, 10 uM, 48 h, repeats, 10 µM): 52.62% and 73.89% and 61.74%
Cell viability % (Caov-3 cells; Caov-3, 15 uM, 48 h, repeats, 15 µM): 42.46% and 49.26%
Cell viability % (Caov-3 cells; Caov-3, 20 uM, 48 h, repeats, 20 µM): 17.34% and 16.88%
viability at 0.75 µM (Caov-3 cells; Homo sapiens, Caov-3, 48 h, Caov-3, 750 nM, repeats, read-out: Cell viability %): 67%
viability at 15 µM (Caov-3 cells; Homo sapiens, Caov-3, 48 h, Caov-3, 15 uM, repeats, read-out: Cell viability %): 36.3%
viability at 20 µM (Caov-3 cells; Homo sapiens, Caov-3, 48 h, Caov-3, 20 uM, repeats, read-out: Cell viability %): 17.4%
IC50 (Caov-3 cells; Homo sapiens, Caov-3, MTT, 48 h): 15.4 µM
